Data: patent publication US11807644B2 (PMV Pharmaceuticals, Inc., priority 2020, dated 2023)

The molecules below were run against T1, recombinant His-tag Y220C p53 DBD protein (Homo sapiens, UniProt P04637, Y220C) (assay: In vitro DNA binding activity assay (TR-FRET): binding of His-tag Y220C p53 DBD to biotin-labeled consensus DNA). Conditions: SC150 = concentration to increase DNA binding by […], His-tag Y220C p53 DBD, biotin-labeled consensus DNA.
T1 construct: recombinant His-tag Y220C p53 DBD protein (amino acids #˜94-312)
Format: biochemical

Row | Compound | Y220C SC150 (μM)
1 | COCCn1cncc1C(=O)NCc1nc(-c2cc3c(N[C@@H]4CCN(C)C[C@@H]4F)cccc3n2CC(F)(F)F)no1 [Compound 268B, N-{[3-(4-{[(3S,4R)-3-fluoro-1-methylpiperidin-4-yl]amino}-1-(2,2,2-trifluoroethyl)-1H-indol-2-yl)-1,2,4-oxadiazol-5-yl]methyl}-1-(2-methoxyethyl)-1H-imidazole-5-carboxamide] | * (* = 0 μM ≤ SC150 < 0.1 μM)
2 | CC(C)(C)N1CC[C@@H](Nc2cccc3c2cc(-c2noc(CNC(=O)c4ccn(C(C)(C)C)c4)n2)n3CC(F)(F)F)[C@H](F)C1 [Compound 394B, 1-tert-butyl-N-{[3-(4-{[(3R,4R)-1-tert-butyl-3-fluoropiperidin-4-yl]amino}-1-(2,2,2-trifluoroethyl)-1H-indol-2-yl)-1,2,4-oxadiazol-5-yl]methyl}-1H-pyrrole-3-carboxamide] | * (* = 0 μM ≤ SC150 < 0.1 μM)
3 | COc1ccc(NCc2nc(-c3cc4c(N[C@@H]5CCN(C)C[C@@H]5F)cccc4n3CC(F)(F)F)no2)nc1 [Compound 378B, N-[(3S,4R)-3-fluoro-1-methylpiperidin-4-yl]-2-(5-{[(5-methoxypyridin-2-yl)amino]methyl}-1,2,4-oxadiazol-3-yl)-1-(2,2,2-trifluoroethyl)-1H-indol-4-amine] | * (* = 0 μM ≤ SC150 < 0.1 μM)
4 | CN1CC[C@@H](Nc2cccc3c2cc(-c2noc(CNC(=O)c4csc(C5(CO)CC5)c4)n2)n3CC(F)(F)F)[C@@H](F)C1 [Compound 487B, N-{[3-(4-{[(3S,4R)-3-fluoro-1-methylpiperidin-4-yl]amino}-1-(2,2,2-trifluoroethyl)-1H-indol-2-yl)-1,2,4-oxadiazol-5-yl]methyl}-5-[1-(hydroxymethyl)cyclopropyl]thiophene-3-carboxamide] | * (* = 0 μM ≤ SC150 < 0.1 μM)
5 | O=C(NCc1nc(-c2cc3c(NC4CCS(=O)(=O)CC4)cccc3n2CC(F)(F)F)no1)C1CC1 [Compound 162B, N-[(3-{4-[(1,1-dioxo-1λ^6-thian-4-yl)amino]-1-(2,2,2-trifluoroethyl)-1H-indol-2-yl}-1,2,4-oxadiazol-5-yl)methyl]cyclopropanecarboxamide] | * (* = 0 μM ≤ SC150 < 0.1 μM)
6 | CCN1CC[C@@H](Nc2cccc3c2cc(-c2noc(CNC(=O)c4ccn(CC(=O)N(C)C)c4)n2)n3CC(F)(F)F)[C@@H](F)C1 [Compound 365B, 1-[(dimethylcarbamoyl)methyl]-N-{[3-(4-{[(3S,4R)-1-ethyl-3-fluoropiperidin-4-yl]amino}-1-(2,2,2-trifluoroethyl)-1H-indol-2-yl)-1,2,4-oxadiazol-5-yl]methyl}-1H-pyrrole-3-carboxamide] | * (* = 0 μM ≤ SC150 < 0.1 μM)
7 | COCC1(c2ccc(C(=O)NCc3nc(-c4cc5c(N[C@@H]6CCN(C)C[C@@H]6F)cccc5n4CC(F)(F)F)no3)s2)CC1 [Compound 483B, N-{[3-(4-{[(3S,4R)-3-fluoro-1-methylpiperidin-4-yl]amino}-1-(2,2,2-trifluoroethyl)-1H-indol-2-yl)-1,2,4-oxadiazol-5-yl]methyl}-5-[1-(methoxymethyl)cyclopropyl]thiophene-2-carboxamide] | * (* = 0 μM ≤ SC150 < 0.1 μM)
8 | CC(C)Cn1ccc(C(=O)NCc2nc(-c3cc4c(N[C@@H]5CCN(C)C[C@@H]5F)cccc4n3CC(F)(F)F)no2)c1 [Compound 240B, N-{[3-(4-{[(3S,4R)-3-fluoro-1-methylpiperidin-4-yl]amino}-1-(2,2,2-trifluoroethyl)-1H-indol-2-yl)-1,2,4-oxadiazol-5-yl]methyl}-1-(2-methylpropyl)-1H-pyrrole-3-carboxamide] | * (* = 0 μM ≤ SC150 < 0.1 μM)
9 | CN1CC[C@@H](Nc2cccc3c2cc(-c2noc(CNC(=O)C4CCC4)n2)n3CC(F)(F)F)[C@@H](F)C1 [Compound 222B, N-{[3-(4-{[(3S,4R)-3-fluoro-1-methylpiperidin-4-yl]amino}-1-(2,2,2-trifluoroethyl)-1H-indol-2-yl)-1,2,4-oxadiazol-5-yl]methyl}cyclobutanecarboxamide] | * (* = 0 μM ≤ SC150 < 0.1 μM)
10 | C[C@@H]1C[C@H]1C(=O)NCc1nc(-c2cc3c(NC4CCN(C)CC4)cccc3n2CC(F)(F)F)no1 (racemic) [Compound 157B, (+/−)-(1R,2R)-2-methyl-N-[(3-{4-[(1-methylpiperidin-4-yl)amino]-1-(2,2,2-trifluoroethyl)-1H-indol-2-yl}-1,2,4-oxadiazol-5-yl)methyl]cyclopropane-1-carboxamide] | * (* = 0 μM ≤ SC150 < 0.1 μM)
11 | CN1CC[C@@H](Nc2cccc3c2cc(-c2noc(CNC(=O)[C@@H]4C[C@@H]4C#N)n2)n3CC(F)(F)F)[C@@H](F)C1 (mixture of isomers) [Compound 195B, (1RS,2SR)-2-cyano-N-{[3-(4-{[(3S,4R)-3-fluoro-1-methylpiperidin-4-yl]amino}-1-(2,2,2-trifluoroethyl)-1H-indol-2-yl)-1,2,4-oxadiazol-5-yl]methyl}cyclopropane-1-carboxamide] | * (* = 0 μM ≤ SC150 < 0.1 μM)
12 | CN1CC[C@@H](Nc2cccc3c2cc(-c2noc(CNC(=O)c4cnn(C5CCOC5)c4)n2)n3CC(F)(F)F)[C@@H](F)C1 (stereo partly drawn) [Compound 321B, N-{[3-(4-{[(3S,4R)-3-fluoro-1-methylpiperidin-4-yl]amino}-1-(2,2,2-trifluoroethyl)-1H-indol-2-yl)-1,2,4-oxadiazol-5-yl]methyl}-1-(oxolan-3-yl)-1H-pyrazole-4-carboxamide] | * (* = 0 μM ≤ SC150 < 0.1 μM)
13 | O=C(NCc1nc(-c2cc3c(NCC4CC4)cccc3n2CC(F)(F)F)no1)C1CC1 [Compound 165B, N-[(3-{4-[(cyclopropylmethyl)amino]-1-(2,2,2-trifluoroethyl)-1H-indol-2-yl}-1,2,4-oxadiazol-5-yl)methyl]cyclopropanecarboxamide] | ** (** = 0.1 μM ≤ SC150 < 0.5 μM)
14 | Cc1nc2c(s1)CC(Nc1cccc3c1cc(-c1noc(CNC(=O)c4ccn(C(C)(C)C)c4)n1)n3CC(F)(F)F)CC2 (stereo not shown) [Compound 368B, 1-tert-butyl-N-[(3-{4-[(2-methyl-4,5,6,7-tetrahydro-1,3-benzothiazol-6-yl)amino]-1-(2,2,2-trifluoroethyl)-1H-indol-2-yl}-1,2,4-oxadiazol-5-yl)methyl]-1H-pyrrole-3-carboxamide] | *** (*** = 0.5 μM ≤ SC150 < 1 μM)
15 | COCC(C)(C)n1ccc(C(=O)NCc2nc(-c3cc4c(N[C@@H]5CCN(C)C[C@@H]5F)cccc4n3CC(F)(F)F)no2)c1 [Compound 383B, N-{[3-(4-{[(3S,4R)-3-fluoro-1-methylpiperidin-4-yl]amino}-1-(2,2,2-trifluoroethyl)-1H-indol-2-yl)-1,2,4-oxadiazol-5-yl]methyl}-1-(1-methoxy-2-methylpropan-2-yl)-1H-pyrrole-3-carboxamide] | * (* = 0 μM ≤ SC150 < 0.1 μM)
16 | CN1CC[C@@H](Nc2cccc3c2cc(-c2noc(CNC(=O)c4ccc(N5CCC(F)(F)CC5)cc4)n2)n3CC(F)(F)F)[C@@H](F)C1 [Compound 256B, 4-(4,4-difluoropiperidin-1-yl)-N-{[3-(4-{[(3S,4R)-3-fluoro-1-methylpiperidin-4-yl]amino}-1-(2,2,2-trifluoroethyl)-1H-indol-2-yl)-1,2,4-oxadiazol-5-yl]methyl}benzamide] | * (* = 0 μM ≤ SC150 < 0.1 μM)
17 | CN1CC[C@@H](Nc2cccc3c2cc(-c2nnc(CNC(=O)c4ccn(C(C)(C)C)c4)o2)n3CC(F)(F)F)[C@@H](F)C1 [Compound 288B, 1-tert-butyl-N-{[5-(4-{[(3S,4R)-3-fluoro-1-methylpiperidin-4-yl]amino}-1-(2,2,2-trifluoroethyl)-1H-indol-2-yl)-1,3,4-oxadiazol-2-yl]methyl}-1H-pyrrole-3-carboxamide] | * (* = 0 μM ≤ SC150 < 0.1 μM)
18 | CCOC1CCCC1n1cc(C(=O)NCc2nc(-c3cc4c(N[C@@H]5CCN(C)C[C@@H]5F)cccc4n3CC(F)(F)F)no2)cn1 (stereo in doubt) [Compound 375B, 1-[(1R,2R)-2-ethoxycyclopentyl]-N-{[3-(4-{[(3S,4R)-3-fluoro-1-methylpiperidin-4-yl]amino}-1-(2,2,2-trifluoroethyl)-1H-indol-2-yl)-1,2,4-oxadiazol-5-yl]methyl}-1H-pyrazole-4-carboxamide] | * (* = 0 μM ≤ SC150 < 0.1 μM)
19 | CN1CC[C@@H](Nc2cccc3c2cc(-c2noc(CNC(=O)c4ccn([C@H]5CC[C@@H](N(C)C)C5)c4)n2)n3CC(F)(F)F)[C@@H](F)C1 (stereo in doubt) [Compound 362B, Cis-1-[(1R,3R)-3-(dimethylamino)cyclopentyl]-N-{[3-(4-{[(3S,4R)-3-fluoro-1-methylpiperidin-4-yl]amino}-1-(2,2,2-trifluoroethyl)-1H-indol-2-yl)-1,2,4-oxadiazol-5-yl]methyl}-1H-pyrrole-3-carboxamide] | * (* = 0 μM ≤ SC150 < 0.1 μM)
20 | COC(C)(C)c1cc(C(=O)NCc2nc(-c3cc4c(N[C@@H]5CCN(C)C[C@@H]5F)cccc4n3CC(F)(F)F)no2)cs1 [Compound 447B, N-{[3-(4-{[(3S,4R)-3-fluoro-1-methylpiperidin-4-yl]amino}-1-(2,2,2-trifluoroethyl)-1H-indol-2-yl)-1,2,4-oxadiazol-5-yl]methyl}-5-(2-methoxypropan-2-yl)thiophene-3-carboxamide] | * (* = 0 μM ≤ SC150 < 0.1 μM)

Same assay, conditions: concentration to increase DNA binding by […], incubated at either 27° C. or 29° C. for 60 min

Row | Compound | SC150 (μM)
21 | O=C(O)c1cccc(-c2cc3c(NC4CCS(=O)(=O)CC4)cccc3n2CC(F)(F)F)c1 [Compound 20A, 3-{4-[(1,1-dioxo-1λ^6-thian-4-yl)amino]-1-(2,2,2-trifluoroethyl)-1H-indol-2-yl}benzoic acid] | ++++ (++++ = 10 μM ≤ SC150 < 35 μM)
22 | O=S1(=O)CCC(Nc2cccc3c2cc(-c2ccc(CO)cc2)n3CC(F)(F)F)CC1 [Compound 27A, 4-({2-[4-(hydroxymethyl)phenyl]-1-(2,2,2-trifluoroethyl)-1H-indol-4-yl}amino)-1λ^6-thiane-1,1-dione] | ++ (++ = 2 μM ≤ SC150 < 5 μM)
